Measurements taken from US20100003217A1, “Compounds and Pharmaceutical Compositions for the Treatment of Viral Infections” (priority 2008, published 2010).
Values joined by “and” are separate entries in the source; they are usually repeats but may differ in a detail not shown here. Identical values can stand only once.

Key:
[1] = test system: monkey primary hepatocytes; assay: Metabolic disposition of [^14C]-Compound 1 and [^14C]-2′-C-methyl guanosine in monkey primary hepatocytes (incubation medium, cellular extracts, nucleotide levels); format: in vitro ADME, Cynomolgus monkey
Procedure, shortened: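 Rat, monkey or human primary hepatocytes on collagen I plates (1.6 million cells/mL) were incubated at 37° C with 1 or 10 μM C-8 [^14C]-labelled compound or 2′-C-methyl guanosine for 1, 4, 8 and 24 hours. Medium and 70% methanol cell extracts were analysed by LSC and radio-HPLC. Nucleotides were identified by alkaline phosphatase treatment and retention-time matching to standards.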

[2] = test system: rat primary hepatocytes; assay: Metabolic disposition of [^14C]-Compound 1 and [^14C]-2′-C-methyl guanosine in rat primary hepatocytes (incubation medium, cellular extracts, nucleotide levels); format: in vitro ADME, Sprague Dawley rat
Procedure, shortened: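 Radio-HPLC and liquid scintillation counting quantified metabolites in incubation medium and in 70% methanol cell extracts. Samples came from cultured rat, monkey or human primary hepatocytes exposed at 37° C to 1 or 10 μM [^14C]-compound or [^14C]-2′-C-methyl guanosine, sampled at 1–24 hours. Phosphates were confirmed by phosphatase digestion to the nucleoside.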

[3] = monkey hepatocytes (Cy234), 10 μM [^14C]-Compound 1, 4 h
[4] = monkey hepatocytes Cy230, 10 μM [^14C]-2′-C-methyl guanosine, 1 h
[5] = monkey hepatocytes Cy230, 10 μM [^14C]-2′-C-methyl guanosine, 8 h
[6] = monkey hepatocytes Cy230, 10 μM [^14C]-2′-C-methyl guanosine, 24 h
[7] = monkey hepatocytes Cy234, 10 μM [^14C]-2′-C-methyl guanosine, 1 h
[8] = monkey hepatocytes Cy234, 10 μM [^14C]-2′-C-methyl guanosine, 4 h
[9] = monkey hepatocytes Cy234, 10 μM [^14C]-2′-C-methyl guanosine, 8 h
[10] = monkey hepatocytes Cy234, 10 μM [^14C]-2′-C-methyl guanosine, 24 h
[11] = rat hepatocytes (Rs458), 1 μM [^14C]-Compound 1, 1 h
[12] = rat hepatocytes (Rs458), 1 μM [^14C]-Compound 1, 8 h
[13] = rat hepatocytes (Rs458), 1 μM [^14C]-Compound 1, 24 h
[14] = rat hepatocytes Rs448, 10 μM [^14C]-2′-C-methyl guanosine, 1 h
[15] = rat hepatocytes Rs448, 10 μM [^14C]-2′-C-methyl guanosine, 4 h
[16] = rat hepatocytes Rs448, 10 μM [^14C]-2′-C-methyl guanosine, 8 h
[17] = rat hepatocytes Rs448, 10 μM [^14C]-2′-C-methyl guanosine, 24 h
[18] = rat hepatocytes Rs458, 1 μM [^14C]-2′-C-methyl guanosine, 1 h
[19] = rat hepatocytes Rs458, 1 μM [^14C]-2′-C-methyl guanosine, 8 h
[20] = rat hepatocytes Rs458, 1 μM [^14C]-2′-C-methyl guanosine, 24 h
[21] = rat hepatocytes Rs458, 10 μM [^14C]-2′-C-methyl guanosine, 1 h
[22] = rat hepatocytes Rs458, 10 μM [^14C]-2′-C-methyl guanosine, 4 h
[23] = rat hepatocytes Rs458, 10 μM [^14C]-2′-C-methyl guanosine, 8 h
[24] = rat hepatocytes Rs458, 10 μM [^14C]-2′-C-methyl guanosine, 24 h

C[C@@]1(O)[C@H](O)[C@@H](COP(=O)(O)OP(=O)(O)O)O[C@H]1n1cnc2c(=O)[nH]c(N)nc21 [Compound 6, [(2R)-2-methyl-β-D-ribofuranosyl]guanine 5′-diphosphate]
metabolites observed in cellular extracts (% of total radioactivity) ([1]; monkey hepatocytes (Cy230, Cy234), 10 μM [^14C]-Compound 1, 1 h): 9.25% and 9.65% | metabolites observed in cellular extracts (% of total radioactivity) ([1]; monkey hepatocytes (Cy230, Cy234), 10 μM [^14C]-Compound 1, 8 h): 13.8% and 14.9% | metabolites observed in cellular extracts (% of total radioactivity) ([1]; monkey hepatocytes (Cy230, Cy234), 10 μM [^14C]-Compound 1, 24 h): 18.5% and 16.0% | 2′-C-methyl guanosine nucleotide levels in cellular extracts [1, 3]: 44.5 pmol/million cells | metabolites observed in cellular extracts (% of total radioactivity) [1, 3]: 17.1% | 2′-C-methyl guanosine nucleotide levels in cellular extracts ([1]; monkey hepatocytes Cy230, 10 μM [^14C]-2′-C-methyl guanosine, 0 h): 0 pmol/million cells | 2′-C-methyl guanosine nucleotide levels in cellular extracts [1, 4]: BLD (BLD = below limit of detection (0.02 pmol/million cells)) | Major metabolites observed in cellular extracts (% of total radioactivity) [1, 4]: BLD (BLD = below limit of detection (30 DPM)) | 2′-C-methyl guanosine nucleotide levels in cellular extracts [1, 5]: 2.07 pmol/million cells | Major metabolites observed in cellular extracts (% of total radioactivity) [1, 5]: 2.82 % of total radioactivity | 2′-C-methyl guanosine nucleotide levels in cellular extracts [1, 6]: 2.16 pmol/million cells | Major metabolites observed in cellular extracts (% of total radioactivity) [1, 6]: 8.41 % of total radioactivity | 2′-C-methyl guanosine nucleotide levels in cellular extracts ([1]; monkey hepatocytes Cy230, 10 μM [^14C]-Compound 1, 0 h): 0 pmol/million cells | 2′-C-methyl guanosine nucleotide levels in cellular extracts ([1]; monkey hepatocytes Cy230, 10 μM [^14C]-Compound 1, 1 h): 26.3 pmol/million cells | 2′-C-methyl guanosine nucleotide levels in cellular extracts ([1]; monkey hepatocytes Cy230, 10 μM [^14C]-Compound 1, 8 h): 153 pmol/million cells | 2′-C-methyl guanosine nucleotide levels in cellular extracts ([1]; monkey hepatocytes Cy230, 10 μM [^14C]-Compound 1, 24 h): 88.4 pmol/million cells | 2′-C-methyl guanosine nucleotide levels in cellular extracts ([1]; monkey hepatocytes Cy234, 10 μM [^14C]-2′-C-methyl guanosine, 0 h): 0 pmol/million cells | 2′-C-methyl guanosine nucleotide levels in cellular extracts [1, 7]: 0.95 pmol/million cells | Major metabolites observed in cellular extracts (% of total radioactivity) [1, 7]: 2.19 % of total radioactivity | 2′-C-methyl guanosine nucleotide levels in cellular extracts [1, 8]: 5.30 pmol/million cells | Major metabolites observed in cellular extracts (% of total radioactivity) [1, 8]: 6.51 % of total radioactivity | 2′-C-methyl guanosine nucleotide levels in cellular extracts [1, 9]: 7.00 pmol/million cells | Major metabolites observed in cellular extracts (% of total radioactivity) [1, 9]: 7.90 % of total radioactivity | 2′-C-methyl guanosine nucleotide levels in cellular extracts [1, 10]: 15.0 pmol/million cells | Major metabolites observed in cellular extracts (% of total radioactivity) [1, 10]: 14.1 % of total radioactivity | 2′-C-methyl guanosine nucleotide levels in cellular extracts ([1]; monkey hepatocytes Cy234, 10 μM [^14C]-Compound 1, 0 h): 0 pmol/million cells | 2′-C-methyl guanosine nucleotide levels in cellular extracts ([1]; monkey hepatocytes Cy234, 10 μM [^14C]-Compound 1, 1 h): 6.10 pmol/million cells | 2′-C-methyl guanosine nucleotide levels in cellular extracts ([1]; monkey hepatocytes Cy234, 10 μM [^14C]-Compound 1, 8 h): 91.0 pmol/million cells | 2′-C-methyl guanosine nucleotide levels in cellular extracts ([1]; monkey hepatocytes Cy234, 10 μM [^14C]-Compound 1, 24 h): 111 pmol/million cells | metabolites observed in cellular extracts (% of total radioactivity) ([2]; rat hepatocytes (Rs448, Rs458), 10 μM [^14C]-Compound 1, 1 h, listed as Compd 6): 11.4% and 12.3% | metabolites observed in cellular extracts (% of total radioactivity) ([2]; rat hepatocytes (Rs448, Rs458), 10 μM [^14C]-Compound 1, 4 h, listed as Compd 6): 13.4% and 16.7% | metabolites observed in cellular extracts (% of total radioactivity) ([2]; rat hepatocytes (Rs448, Rs458), 10 μM [^14C]-Compound 1, 8 h, listed as Compd 6): 12.7% and 16.8% | metabolites observed in cellular extracts (% of total radioactivity) ([2]; rat hepatocytes (Rs448, Rs458), 10 μM [^14C]-Compound 1, 24 h, listed as Compd 6): 15.2% and 14.6% | 2′-C-methyl guanosine nucleotide levels in cellular extracts ([2]; rat hepatocytes (Rs458), 1 μM [^14C]-Compound 1, 0 h): BLD (BLD = below limit of detection (0.02 pmol/million cells)) | 2′-C-methyl guanosine nucleotide levels in cellular extracts [2, 11]: 20.0 pmol/million cells | metabolites observed in cellular extracts (% of total radioactivity) [2, 11]: 13.0% | 2′-C-methyl guanosine nucleotide levels in cellular extracts [2, 12]: 41.2 pmol/million cells | metabolites observed in cellular extracts (% of total radioactivity) [2, 12]: 13.27% | 2′-C-methyl guanosine nucleotide levels in cellular extracts [2, 13]: 30.0 pmol/million cells | metabolites observed in cellular extracts (% of total radioactivity) [2, 13]: 18.1% | 2′-C-methyl guanosine nucleotide levels in cellular extracts ([2]; rat hepatocytes Rs448, 10 μM [^14C]-2′-C-methyl guanosine, 0 h): 0 pmol/million cells | 2′-C-methyl guanosine nucleotide levels in cellular extracts [2, 14]: 7.00 pmol/million cells | Major metabolites observed in cellular extracts (% of total radioactivity) [2, 14]: 1.24 % of total radioactivity | 2′-C-methyl guanosine nucleotide levels in cellular extracts [2, 15]: 28.0 pmol/million cells | Major metabolites observed in cellular extracts (% of total radioactivity) [2, 15]: 3.54 % of total radioactivity | 2′-C-methyl guanosine nucleotide levels in cellular extracts [2, 16]: 47.0 pmol/million cells | Major metabolites observed in cellular extracts (% of total radioactivity) [2, 16]: 4.76 % of total radioactivity | 2′-C-methyl guanosine nucleotide levels in cellular extracts [2, 17]: 101 pmol/million cells | Major metabolites observed in cellular extracts (% of total radioactivity) [2, 17]: 10.4 % of total radioactivity | 2′-C-methyl guanosine nucleotide levels in cellular extracts ([2]; rat hepatocytes Rs448, 10 μM [^14C]-Compound 1, 0 h): 0 pmol/million cells | 2′-C-methyl guanosine nucleotide levels in cellular extracts ([2]; rat hepatocytes Rs448, 10 μM [^14C]-Compound 1, 1 h): 112 pmol/million cells | 2′-C-methyl guanosine nucleotide levels in cellular extracts ([2]; rat hepatocytes Rs448, 10 μM [^14C]-Compound 1, 4 h): 269 pmol/million cells | 2′-C-methyl guanosine nucleotide levels in cellular extracts ([2]; rat hepatocytes Rs448, 10 μM [^14C]-Compound 1, 8 h): 311 pmol/million cells | 2′-C-methyl guanosine nucleotide levels in cellular extracts ([2]; rat hepatocytes Rs448, 10 μM [^14C]-Compound 1, 24 h): 215 pmol/million cells | 2′-C-methyl guanosine nucleotide levels in cellular extracts ([2]; rat hepatocytes Rs458, 1 μM [^14C]-2′-C-methyl guanosine, 0 h): BLD (BLD = below limit of detection (0.02 pmol/million cells)) | 2′-C-methyl guanosine nucleotide levels in cellular extracts [2, 18]: 0.85 pmol/million cells | Major metabolites observed in cellular extracts (% of total radioactivity) [2, 18]: 1.50 % of total radioactivity | 2′-C-methyl guanosine nucleotide levels in cellular extracts [2, 19]: 4.00 pmol/million cells | Major metabolites observed in cellular extracts (% of total radioactivity) [2, 19]: 5.14 % of total radioactivity | 2′-C-methyl guanosine nucleotide levels in cellular extracts [2, 20]: 8.00 pmol/million cells | Major metabolites observed in cellular extracts (% of total radioactivity) [2, 20]: 9.88 % of total radioactivity | 2′-C-methyl guanosine nucleotide levels in cellular extracts ([2]; rat hepatocytes Rs458, 10 μM [^14C]-2′-C-methyl guanosine, 0 h): 0 pmol/million cells | 2′-C-methyl guanosine nucleotide levels in cellular extracts [2, 21]: 5.60 pmol/million cells | Major metabolites observed in cellular extracts (% of total radioactivity) [2, 21]: 1.08 % of total radioactivity | 2′-C-methyl guanosine nucleotide levels in cellular extracts [2, 22]: 28.0 pmol/million cells | Major metabolites observed in cellular extracts (% of total radioactivity) [2, 22]: 4.01 % of total radioactivity | 2′-C-methyl guanosine nucleotide levels in cellular extracts [2, 23]: 48.0 pmol/million cells | Major metabolites observed in cellular extracts (% of total radioactivity) [2, 23]: 5.42 % of total radioactivity | 2′-C-methyl guanosine nucleotide levels in cellular extracts [2, 24]: 91.0 pmol/million cells | Major metabolites observed in cellular extracts (% of total radioactivity) [2, 24]: 9.65 % of total radioactivity | 2′-C-methyl guanosine nucleotide levels in cellular extracts ([2]; rat hepatocytes Rs458, 10 μM [^14C]-Compound 1, 0 h): 0 pmol/million cells | 2′-C-methyl guanosine nucleotide levels in cellular extracts ([2]; rat hepatocytes Rs458, 10 μM [^14C]-Compound 1, 1 h): 129 pmol/million cells | 2′-C-methyl guanosine nucleotide levels in cellular extracts ([2]; rat hepatocytes Rs458, 10 μM [^14C]-Compound 1, 4 h): 326 pmol/million cells | 2′-C-methyl guanosine nucleotide levels in cellular extracts ([2]; rat hepatocytes Rs458, 10 μM [^14C]-Compound 1, 8 h): 375 pmol/million cells | 2′-C-methyl guanosine nucleotide levels in cellular extracts ([2]; rat hepatocytes Rs458, 10 μM [^14C]-Compound 1, 24 h): 207 pmol/million cells
